System: N2a cells
Assay: LC3-II levels by western blot in N2a cells (autophagy induction)
Assay type: cell-based, mouse
Conditions: for LC3-II levels in the presence of chloroquine compared with CQ treatment alone / LC3-II levels compared to the vehicle control: 12 h; for LC3-II levels in the presence of chloroquine compared with CQ treatment alone / LC3-II levels compared to the vehicle control / LC3-II levels in cells depleted of Atg5 by siRNA: analogs 1 μM; for LC3-II levels in the presence of chloroquine compared with CQ treatment alone: CQ 20 μM; for LC3-II levels compared to the vehicle control / LC3-II levels in cells depleted of Atg5 by siRNA: curcumin 10 μM; for LC3-II levels compared to the vehicle control: vs 0.1% DMSO; for LC3-II levels in cells depleted of Atg5 by siRNA: siAtg5 72 h then compound 12 h
Experimental: N2a cells were treated with curcumin (Cur, 10 μM) and its analogs (1 μM) for 12 h (FIG. 2A). N2a cells were treated with Cur (10 μM), analogs A2, B3 and C1 (1 μM) with or without chloroquine (CQ, 20 μM) for 12 h (FIG. 2B). N2a cells were transfected with non-target siRNA (siNT) or Atg5 siRNA (siAtg5, 50 nM) for 72 h and then treated with Cur (10 μM) and analogs A2, B3 and C1 (1 μM) for 12 h (FIG. 2C). The expression of LC3-II is determined by western blot. Relative intensity is normalized to that of ACTB/β-actin. Data are presented as the mean±SD from three independent experiments. *p<0.05 vs. the control (0.1% DMSO); #p<0.05 vs. CQ treatment alone. N. S.=not significant.
(§1) N2a cells are treated with curcumin E series analogs (1 μM) for 12 hours. The expression of LC3-II is shown in Western blot (FIG. 13A). LC3-II relative intensity is normalized to that of ACTB/β-actin. Quantification data (FIG. 13B) are presented as the mean±SD from three independent experiments. *p<0.05 vs. the control (0.1% DMSO).
as §1, with “E2, E3 and E4” for “curcumin E series analogs”, “(1 μM) in the presence or absence of chloroquine (CQ, 20” for “(1”, “14A).” for “13A).”, “14B)” for “13B)”, “DMSO); ^#p<0.05 vs. CQ treatment alone.” for “DMSO).”
as §1, with “E4” for “curcumin E series analogs (1 μM)”, “determined by” for “shown in”, “blotting” for “blot”, “20A).” for “13A).”, “20B)” for “13B)”, “*p<0.05, **p<0.01” for “*p<0.05”
N2a cells are transfected with non-target siRNA (Si-NT) and TFEB siRNA. The levels of TFEB is examined by Western blotting (FIG. 27A) analysis and quantified (FIG. 27B). The effects of knock-down the expression of TFEB on the expression of LC3-II levels induced by E4 (1 μM) is also examined by Western blotting (FIG. 27C). Quantification data are presented as the mean±SD from three independent experiments (FIG. 27D). *p<0.05 vs. the control (0.1% DMSO), # p<0.05 vs. CQ alone.
N2a, Hela and Hela cells stably expressing 3×-Flag-TFEB are cultured in DMEM supplemented with 10% FBS. SH-SY5Y cells are cultured in DMEM/F12 supplemented with 10% FBS. For drug treatment, the full medium is replaced by fresh Opti-MEM I and then the compounds (in 0.1% DMSO) are added to the cells and incubated for 12 h. Inducible PC12 cells overexpressing SNCA (WT and A53T) (a kind gift from Prof. David C. Rubinsztein at Cambridge University) are grown in DMEM supplemented with 10% horse serum, 5% FBS, 50 μg/ml G418, and 150 μg/ml hygromycin B at 37° C., 10% CO2. Cells are treated with 2 μg/ml doxycycline (Dox) for 24 h to induce SNCA expression. The full medium is changed to Opti-MEM I containing the testing compounds for another 48 h.
Mouse Atg5 siRNA (25 nM) or human TFEB (100 nM) siRNA and the non-target siRNAs are transfected with Lipofectamine RNAiMAX (13778030, Invitrogen) and incubated at 37° C. for 72 h.
Cells are lysed on ice in 1× Lysis Buffer (9803, Life Technologies) with complete protease inhibitor mixture (04693124001, Roche Applied Science). Animal tissues are homogenized in nine volumes of ice-cold PBS supplemented with protease inhibitors. Cytosolic and nuclear fractions are isolated using protocols similar to those described previously. Anti-Flag or TFEB antibody is added to the whole cell lysates and Dynabeads® Protein G (10003D, Life Technologies) is used for immunoprecipitation. Proteins are separated by 10-15% SDS-PAGE, transferred, and blotted with the antibodies described. The blots are then incubated with secondary antibodies or the Clean-Blot IP Detection Reagent (21230, Thermo Scientific) at room temperature for 1 h. The protein signals are detected by ECL kit (32106, Pierce) and quantified using ImageJ software. […]

Row | Compound | LC3-II levels in the presence of chloroquine compared with CQ treatment alone | LC3-II levels compared to the vehicle control | LC3-II levels in cells depleted of Atg5 by siRNA | LC3-II levels plus CQ compared with CQ treatment alone in cells transfected with non-target siRNA (Si-NT, with CQ) | expression of LC3-II, dose-dependent (0-1 μM, 12 hours, dose-dependent manner) | autophagy-enhancing effect, comparison among E series compounds tested (1 μM, 12 hours) | LC3-II levels compared with the control in cells transfected with non-target siRNA (Si-NT, 1 μM) | induced autophagy (LC3-II levels) after knock-down of TFEB (TFEB siRNA, 1 μM)
1 | O=C(/C=C/c1cccc(C(F)(F)F)c1)/C=C/c1cccc(C(F)(F)F)c1 [A2, 1,5-bis(3-(trifluoromethyl)phenyl)penta-1,4-dien-3-one] | further increase | significantly increase | failed to increase | – | – | – | – | –
2 | O=C(/C=C/c1ccc(O)cc1)/C=C/c1ccc(O)cc1 [B3, 1,5-bis(4-hydroxyphenyl)penta-1,4-dien-3-one] | further increase | significantly increase | failed to increase | – | – | – | – | –
3 | COc1ccccc1/C=C/C(=O)/C=C/c1ccccc1OC [C1, 1,5-bis(2-methoxyphenyl)penta-1,4-dien-3-one] | further increase | significantly increase | failed to increase | further increased | – | – | – | –
4 | O=C(/C=C/c1ccccc1Cl)/C=C/c1ccccc1Cl [E2] | further increase | significantly increase | – | – | – | – | – | –
5 | O=C(/C=C/c1ccccc1Br)/C=C/c1ccccc1Br [E3] | further increase | significantly increase | – | – | – | – | – | –
6 | O=C(/C=C/c1ccccc1I)/C=C/c1ccccc1I [E4] | further increase | significantly increase | – | – | significantly increase | best autophagy-enhancing effect | significantly increases | attenuated
7 | COc1cc(/C=C/C(=O)CC(=O)/C=C/c2ccc(O)c(OC)c2)ccc1O [curcumin, Curcumin, reference compound] | – | significantly increase | failed to increase | – | – | – | – | –
